{"source": "patent US20260234115A1", "about": "“LIPID COMPOUNDS, COMPOSITIONS, AND USES THEREOF” (Liberate Bio, Inc., priority 2023, published 2026)", "key": {"mouse organs": {"system": "mouse organs", "assay": "In vivo activity screening in mice: organ mean total flux (p/s) of luciferase activity after injection of F2 LNP pools (Table 6, FIG. 7A-7C)", "settings": "Mouse 9, dose 0.5 mg/kg, luciferase mRNA", "procedure,_shortened": "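C57BL/6J mice given one tail-vein injection of pooled Formulation F2 LNPs carrying firefly luciferase mRNA (0.25-3 mg/kg) in PBS. At 4-6 h, s.c. D-luciferin given; organs imaged ex vivo by IVIS within 10-15 min, after saline cardiac perfusion. Mean total flux (p/s) per organ ROI.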"}, "NHP organs": {"system": "NHP organs", "assay": "In vivo activity screening in non-human primates: mean normalized UMI counts of barcoded mRNA in tissues after IV infusion of pooled F2 LNPs (Table 7, FIG. 8-11)", "design": "species or system cynomolgus monkeys (Macaca fascicularis)", "settings": "NHP 2, pooled F2 LNPs, IV infusion, 4-6 hours", "protocol": "Non-human primate (NIIP) biodistribution studies were performed in cynomolgus monkeys (e.g., Macaca fascicularis), aged 4-6 years. Animals were premedicated with dexamethasone, famotidine and diphenhydramine (at 1, 0.5 and 5 mg/kg, respectively) −2 and −1 day prior to test material dosing. LNP formulations (prepared in Formulation F2 from Example 1) were prepared with ionizable lipids so that each LNP formulation encapsulates one or more mRNAs with predetermined unique barcode sequences as their cargo. LNPs in PBS, identified by their unique barcoded mRNA cargo, are then pooled together at predetermined ratios. To evaluate LNP biodistribution into tissues upon systemic administration, NHPs received the dose administration by single intravenous infusion via peripheral vein (cephalic, saphenous, or another available) for 30 minutes with LNP dosing material (individual or pooled) in PBS at different total dose (0.5-1 mg/kg) levels.\nAt predetermined time points (4-6 hours after pooled test material administration), animals were sacrificed by exsanguination via the femoral artery after the intravenous injection of ketamine (10 mg/kg) and Euthasol® (0.25 mL/kg). Then, all animals underwent whole-body perfusion with PBS prior to tissue collection. 20-25 mg samples for biodistribution analysis were collected from all treatment group animals and then placed in sample tubes containing RNALater™ solution. All tissue samples were stored at room temperature for 24 hours, then the supernatants were removed, and samples were frozen.\nTo determine the unique LNPs distributed in the tissues, samples were homogenized by a tissue homogenizer (e.g., TissueLyser). Total RNA from the tissue homogenates were extracted by standard methods. Then, normalized amounts of RNA were sequenced using a targeted RNA sequencing approach with unique molecular identifiers (UMI) to ensure accurate RNA molecule counting. For each tissue, the resulting RNA molecule counts were normalized by pooled test article RNA counts. The results were analyzed using the internal bioinformatics pipeline.\nLNPs comprising MC3 used as a control and for cross-mouse comparison. Dose is in mg/kg; LC is Lipid Compound according to Table 1.\nScreening results for NHP Group 1 (spleen, femur, and muscle) are shown in FIG. 8A, FIG. 8B, and FIG. 8C."}}, "note": "Marks after values point to notes of the source that are not given here.", "data": [{"smiles": "CCCCC/C=C\\CCOC(=O)CCCCC(=O)OCC(COC(=O)CCCCC(=O)OCC/C=C\\CCCCC)(COC(=O)CCC(CCCCCC)OC(=O)C12CCN(CC1)CC2)COC(=O)CC12CC3CC(CC(C3)C1)C2", "note": "(centres unmarked) [Compound 62, O6-[2-[[2-(1-adamantyl)acetyl]oxymethyl]-2-[[6-[(Z)-non-3-enoxy]-6-oxo-hexanoyl]oxymethyl]-3-[4-(quinuclidine-4-carbonyloxy)decanoyloxy]propyl]O1-[(Z)-non-3-enyl]hexanedioate]", "values": [{"measurement": "Organ Mean Total Flux Femur", "setting": "mouse organs", "result": "0.6 p/s (×10^6)"}, {"measurement": "Organ Mean Total Flux Heart", "setting": "mouse organs", "result": "0.1 p/s (×10^6)"}, {"measurement": "Organ Mean Total Flux Kidney", "setting": "mouse organs", "result": "0.3 p/s (×10^6)"}, {"measurement": "Organ Mean Total Flux Liver", "setting": "mouse organs", "result": "38.0 p/s (×10^6)"}, {"measurement": "Organ Mean Total Flux Lung", "setting": "mouse organs", "result": "2.5 p/s (×10^6)"}, {"measurement": "Organ Mean Total Flux Muscle", "setting": "mouse organs", "result": "1.4 p/s (×10^6)"}, {"measurement": "Organ Mean Total Flux Pancreas", "setting": "mouse organs", "result": "0.5 p/s (×10^6)"}, {"measurement": "Organ Mean Total Flux Spleen", "setting": "mouse organs", "result": "3.3 p/s (×10^6)"}, {"measurement": "Mean normalized UMI counts (×10^4) Bone Marrow", "setting": "NHP organs; bone marrow", "result": "19.0 ×10^4"}, {"measurement": "Mean normalized UMI counts (×10^4) Brain", "setting": "NHP organs; brain", "result": "3.8 ×10^4"}, {"measurement": "Mean normalized UMI counts (×10^4) Heart", "setting": "NHP organs; heart", "result": "87.0 ×10^4"}, {"measurement": "Mean normalized UMI counts (×10^4) Kidney", "setting": "NHP organs; kidney", "result": "21.9 ×10^4"}, {"measurement": "Mean normalized UMI counts (×10^4) Liver", "setting": "NHP organs; liver", "result": "27.4 ×10^4"}, {"measurement": "Mean normalized UMI counts (×10^4) Lung", "setting": "NHP organs; lung", "result": "21.8 ×10^4"}, {"measurement": "Mean normalized UMI counts (×10^4) Muscle", "setting": "NHP organs; muscle", "result": "43.9 ×10^4"}, {"measurement": "Mean normalized UMI counts (×10^4) Pancreas", "setting": "NHP organs; pancreas", "result": "8.1 ×10^4"}, {"measurement": "Mean normalized UMI counts (×10^4) Spleen", "setting": "NHP organs; spleen", "result": "29.8 ×10^4"}]}]}
